Measurements published in US8357377B2, “Cyclodextrin-based materials, compositions and uses related thereto” (priority 2002, dated 2013).

Assay: Rat PVA sponge model, morphological analysis (Masson's Trichrome sections)
Design: species or system Harlan Sprague-Dawley rats
Conditions: in vivo
Experimental: Six small incisions (0.5 cm) were performed and polyvinyl alcohol (PVA, M-PACTO®) sponges were subcutaneously implanted on the ventral side of male Harlan Sprague-Dawley rats.
Four days after implantation, test and control materials were diluted with vPBS and liquid collagen (Cohesion Technologies®) or 58 kD Cyclodextrin (CD)-Adamantane matrix as described above and injected into PVA sponges. Final collagen formulation was 1.8 mg/mL, pHed with NaOH, and brought up to volume with vPBS. Final 58 kD Cyclodextrin (CD)-Adamantane matrix formulation was 100 mg/mL. 200 μL total volume of test reagent was delivered to each sponge. Animals were sacrificed and sponges were removed 2 days after injections. Sponges were cut into three pieces and the majority of the sponge (˜70-80%) was frozen in liquid nitrogen and stored at −80° C. for QPCR and QRT-PCR analysis. A small portion of the sponge was fixed in 4% PFA at 4° C. for 18 hours, paraffin embedded, and sectioned (5 μm). Sections were stained using Masson's Trichrome (cells=black, vasculature=red, and collagen=blue) and Hematoxylin-Eosin methods. Tissue sections were analyzed microscopically for gross histology by two separate investigators.
5 μm, Masson's Trichrome stained paraffin sections were analyzed by two separate observers. Sponge characteristics were qualitatively evaluated by the following criteria: Minimal<Light<Moderate<Heavy<Severe for all categories except Capsule Size. The following criteria were used for evaluation of Capsule Size: Thin<Moderate<Thick<Very Thick.

Capsule Size: Thin | Immune Response: Minimal | Immune response (gross histological examination): minimal immune response
Substance: Collagen
